Values quoted from earlier work in patent publication US6440947B1, “Method for treating occlusive peripheral vascular disease and coronary disease” (The Regents of the University of California, priority 1997, dated 2002).

Tests used:
[1] = tested on: human umbilical vein endothelial cell cultures; conditions: physiological concentrations

Nc1ncnc2c1ncn2[C@@H]1O[C@H](CO)[C@@H](O)[C@H]1O [Adenosine, adenosine]
effect on endothelial cell proliferation [1]: stimulates proliferation
half-life in vivo: less than 30 seconds
